{"source": "paper PMC12118337", "about": "“Development of a Peptide Inhibitor Targeting the C‐SH2 Domain of the SHP2 Phosphatase” (Chembiochem, 2025)", "target": "T1, SHP2 PTP domain (Homo sapiens, UniProt Q06124)", "T1 construct": "SHP2 N-SH2 domain (1–105), C-SH2 domain (106–220), PTP domain (224–541) and; His6 (pETM22 vector) (N, cleaved yes); made in house; host or cells: E. coli BL21(DE3) Tuner", "T1 sequence (Q06124 224-541)": "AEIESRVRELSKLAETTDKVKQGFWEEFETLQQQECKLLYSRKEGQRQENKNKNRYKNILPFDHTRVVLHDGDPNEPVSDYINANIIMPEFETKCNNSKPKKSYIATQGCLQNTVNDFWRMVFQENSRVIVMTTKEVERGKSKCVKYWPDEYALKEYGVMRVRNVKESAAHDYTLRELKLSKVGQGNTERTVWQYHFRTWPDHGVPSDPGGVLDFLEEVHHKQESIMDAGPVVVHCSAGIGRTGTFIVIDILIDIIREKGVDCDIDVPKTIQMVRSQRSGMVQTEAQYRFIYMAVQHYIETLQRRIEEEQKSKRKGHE", "assay": "FP binding assay, SHP2 PTP domain", "settings": "100 nM peptide, increasing C-SH2, N-SH2 or PTP domain", "method": "buffer and stored in 5 mL binding buffer at 4°C. His-tagged 3C protease (0.5 mg; EMBL) was added to the pooled eluted fractions and dialysed using Spectra Por Dialysis Tubing (MWCO 6-8 kDa, 23 mm; Spectrum Labs) in 1 L of binding buffer at 4°C for 3 hours, then overnight in fresh buffer. A new column was prepared by loading 2 mL Ni-NTA Agarose (Invitrogen) as a 50% slurry in EtOH. The column was washed with 10 mL H2O to remove the EtOH and equilibrated with 10 mL binding buffer. The protein/3C protease mixture was loaded onto the column and incubated for 1 hour at 4°C on a rocker. […] Protein purification was monitored by SDS-PAGE using NuPAGE 4-12% Bis-Tris Protein Gels (Invitrogen) run in MOPS buffer (50 mM MOPS, 50 mM Tris-HCl pH 7.7, 1 mM EDTA, 0.1% SDS) followed by Coomassie staining using Coomassie Brilliant Blue (Roth). […]\n4. Fluorescence polarization\nFluorescence polarization (FP) was used to measure the binding of FAM-labelled peptides to the SHP2 C-SH2, SHP2 N-SH2, SHP2 PTP, CSK SH2 or Src SH2 domains. […]\nconcentration of 100 nM in a final volume of 200 µL. […] The FP was immediately measured on a Synergy H1 Microplate Reader (BioTek) with the excitation and emission monitored at 485 nm and 528 nm, respectively, over 30 minutes. FP values were automatically calculated by the Gen5 3.03 (BioTek) software associated with the microplate reader. […]", "note": "Residues, ends and D or L forms follow the SMILES beside them. *: point of attachment. 5FAM = O=C1OC2(c3ccc(O)cc3Oc3cc(O)ccc32)c2ccc(C(=O)*)cc21; X1 = O=C(O)C(C(=O)O)*"}
{"smiles": "CC[C@H](C)[C@H](NC(=O)[C@@H](NC(=O)[C@H](C)NC(=O)[C@H](Cc1ccc(OC(C(=O)O)C(=O)O)cc1)NC(=O)[C@H](CCC(=O)O)NC(=O)[C@@H](NC(=O)[C@H](CCC(N)=O)NC(=O)c1ccc2c(c1)C(=O)OC21c2ccc(O)cc2Oc2cc(O)ccc21)[C@@H](C)O)[C@@H](C)O)C(=O)N[C@@H](CCCCN)C(=O)N[C@@H](Cc1c[nH]cn1)C(=O)N1CCC[C@H]1C(N)=O", "note": "[peptide 26] (5FAM-QTEY(X1)ATIKHP-NH2)", "values": [{"measurement": "binding selectivity for C‐SH2 over N‐SH2 and PTP domains", "result": "maintained binding selectivity"}]}
